The target in the test is T1, CBP-BRD:CRBN thalidomide binding domain ternary complex (Homo sapiens, UniProt Q92793+Q96SW2).
T1 construct: GST-CBP (human, residues 1081-1197); the C-terminus of CRBN (human, residues 318-442); His6 with TEV cleavage site (N, cleaved yes); made in house; host or cells: Rosetta (DE3) cells (E. coli)
Briefly: TR-FRET CBP-BRD:PROTAC:CRBN ternary complex formation. How it is done: (PMSF), and 1 mM EDTA) and lysed by sonication. The lysates were clarified by centrifugation (18,000 rpm, 4 °C, 1 h).
For GST-CBP the soluble proteins were loaded onto a column packed with glutathione sepharose 4B (GE Healthcare) and subsequently eluted with 10 mM reduced glutathione in buffer containing 20 mM Tris-HCl pH 8.0, and 150 mM NaCl. Finally, a size exclusion step (HiLoad 16/600 Superdex 200 pg column from GE Healthcare) was used to further purify the protein in buffer containing 50 mM HEPES pH 7.5 and 150 mM NaCl. For His-CRBN and His-CRBN-Avi(biotin), the soluble fractions were loaded onto the HisTrap FF crude column (GE Healthcare) and washed with lysis buffer supplemented with 50 mM imidazole. The proteins were eluted with a buffer containing 250 mM imidazole, 100 mM Tris-HCl pH 8.0 and 500 mM NaCl. For His-CRBN-Avi(biotin) only, recombinant TEV protease was used to cleave the His6-tag during overnight dialysis at 4 °C against buffer containing 100 mM Tris-HCl pH 8.0 and 500 mM NaCl. The dialyzed sample was passed through the HisTrap FF crude column to remove His6-tagged TEV protease and uncleaved protein. […]
The maximal control contained no PROTAC, the blank contained no SK-20 and no PROTAC – these were replaced by the appropriate buffer. […] The samples were incubated for 3 h (20 °C, dark) and the signal was detected using the Infinite M1000 plate reader (Tecan). After excitation at 317 nm, emission at 620 and 665 nm was recorded. […]
were determined according to the following equation:
activity (%) = ΔF ∗ 100 = F−Fb ∗ 100 , where Ft is the TR-FRET signal in the absence of any compound (maximal control, 100 % activity), Fb the TR-FRET signal in the absence of the GST -CBP (blank, 0 % activity) and F the TR -FRET signal in the presence of the compound. Dose -response curves were plotted in GraphPad Prism 10.2.3 and fitted with nonlinear regression “log(inhibitor) vs. normalized response – variable slope”, from which IC 50 values were determined. […]

Molecules are shown by their SMILES.

T1 sequence (Q92793 1081-1197): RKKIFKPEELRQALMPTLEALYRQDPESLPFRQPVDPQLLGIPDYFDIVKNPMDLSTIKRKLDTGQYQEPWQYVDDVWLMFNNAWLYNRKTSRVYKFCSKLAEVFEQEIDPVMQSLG
T1 sequence (Q96SW2 318-442): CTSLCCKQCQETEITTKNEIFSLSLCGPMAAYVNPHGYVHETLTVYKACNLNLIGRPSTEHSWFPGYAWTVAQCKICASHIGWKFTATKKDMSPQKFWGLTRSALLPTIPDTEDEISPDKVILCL

With `Cc1cc2c(NC(=O)c3cc(NC(=O)CCCCCCCCCCNc4cccc5c4C(=O)N(C4CCC(=O)NC4=O)C5=O)cc(-c4ccn(C)n4)c3)cccc2nn1` (centres unmarked) [dCE-2], the “ternary complex formation (TR-FRET)” value (CBP-BRD and CRBN-thalidomide binding domain labeled with TR-FRET pair) was “robust formation of the ternary complex”. Besides, the “PROTAC concentration at peak of hook curve” value (TR-FRET ternary complex) is “around 1 μM”.

Values taken from article PMC11423305, “Structure-Based Design of CBP/EP300 Degraders: When Cooperativity Overcomes Affinity” (JACS Au, 2024).
